Values joined by “and” are separate entries in the source; they are usually repeats but may differ in a detail not shown here. Identical values can stand only once.
Experiment: xn = mol fraction of the nth substance listed
Settings: Fluid (supercritical or subcritical phases); for mass density: 293.15 K, Vibrating tube method, x1 = 0.97; for speed of sound: 298.13 K, Frequency=5 MHz, Pulse-echo method

O=C=O [carbon dioxide] + CO
Settings	mass density [kg/m3]
14700 kPa	904.75
14725 kPa	904.95
14750 kPa	905.15
14775 kPa	905.36
14800 kPa	905.48
14825 kPa	905.68
14850 kPa	905.88
14875 kPa	906.06
14900 kPa	906.27
14925 kPa	906.44
14950 kPa	906.59
14975 kPa	906.77
15000 kPa	906.96
15025 kPa	907.15
15050 kPa	907.32
15075 kPa	907.46
15100 kPa	907.6
15125 kPa	907.83
15150 kPa	907.99
15175 kPa	908.18
15200 kPa	908.32
15225 kPa	908.49
15250 kPa	908.66
15275 kPa	908.85
15300 kPa	909.03
15325 kPa	909.22
15350 kPa	909.37
15375 kPa	909.52
15400 kPa	909.68
15425 kPa	909.89
15450 kPa	910.03
15475 kPa	910.14
15500 kPa	910.23
15525 kPa	910.31
15550 kPa	910.48
15575 kPa	910.7
15600 kPa	910.88
15625 kPa	911.01
15650 kPa	911.21
15675 kPa	911.37
15700 kPa	911.59
15725 kPa	911.74
15750 kPa	911.86
15775 kPa	912.03
15800 kPa	912.19
15825 kPa	912.36
15850 kPa	912.52
15875 kPa	912.75
15900 kPa	912.9
15925 kPa	913.04
15950 kPa	913.17
15975 kPa	913.37
16000 kPa	913.55
16025 kPa	913.66
16050 kPa	913.83
16075 kPa	913.99
16100 kPa	914.15
16125 kPa	914.31
16150 kPa	914.45
16175 kPa	914.56
16200 kPa	914.73
16225 kPa	914.89
16250 kPa	915.05
16275 kPa	915.22
16300 kPa	915.38
16325 kPa	915.54
16350 kPa	915.71
16375 kPa	915.87
16400 kPa	916.03
16425 kPa	916.2
16450 kPa	916.37
16475 kPa	916.52
16500 kPa	916.75
16525 kPa	916.93
16550 kPa	917.01
16575 kPa	917.25
16600 kPa	917.37
16625 kPa	917.58
16650 kPa	917.7
16675 kPa	917.9
16700 kPa	918.08
16725 kPa	918.24
16750 kPa	918.41
16775 kPa	918.57
16800 kPa	918.73
16825 kPa	918.9
16850 kPa	919.06
16875 kPa	919.22
16900 kPa	919.43
16925 kPa	919.55
16950 kPa	919.71
16975 kPa	919.95
17000 kPa	920.08
17025 kPa	920.29
17050 kPa	920.44
17075 kPa	920.59
17100 kPa	920.73
17125 kPa	920.92
17150 kPa	921.1
17175 kPa	921.27
17200 kPa	921.4
17225 kPa	921.53
17250 kPa	921.7
17275 kPa	921.85
17300 kPa	922.01
17325 kPa	922.18
17350 kPa	922.33
17375 kPa	922.5
17400 kPa	922.71
17425 kPa	922.85
17450 kPa	922.99
17475 kPa	923.17
17500 kPa	923.34
17525 kPa	923.48
17550 kPa	923.64
17575 kPa	923.77
17600 kPa	923.94
17625 kPa	924.11
17650 kPa	924.26
17675 kPa	924.4
17700 kPa	924.55
17725 kPa	924.7
17750 kPa	924.87
17775 kPa	925.03
17800 kPa	925.19
17825 kPa	925.35
17850 kPa	925.49
17875 kPa	925.61
17900 kPa	925.82
17925 kPa	925.93
17950 kPa	926.13
17975 kPa	926.25
18000 kPa	926.42
18025 kPa	926.56
18050 kPa	926.67
18075 kPa	926.86
18100 kPa	927.05
18125 kPa	927.16
18150 kPa	927.35
18175 kPa	927.46
18200 kPa	927.66
18225 kPa	927.75
18250 kPa	927.94
18275 kPa	928.06
18300 kPa	928.22
18325 kPa	928.38
18350 kPa	928.5
18375 kPa	928.68
18400 kPa	928.85
18425 kPa	928.95
18450 kPa	929.11
18475 kPa	929.27
18500 kPa	929.45
18525 kPa	929.53
18550 kPa	929.71
18575 kPa	929.88
18600 kPa	929.97
18625 kPa	930.13
18650 kPa	930.29
18675 kPa	930.46
18700 kPa	930.61
18725 kPa	930.69
18750 kPa	930.86
18775 kPa	931.01
18800 kPa	931.17
18825 kPa	931.25
18850 kPa	931.43
18875 kPa	931.59
18900 kPa	931.74
18925 kPa	931.9
18950 kPa	931.99
18975 kPa	932.14
19000 kPa	932.3
19025 kPa	932.45
19050 kPa	932.6
19075 kPa	932.74
19100 kPa	932.87
19125 kPa	933.01
19150 kPa	933.14
19175 kPa	933.29
19200 kPa	933.42
19225 kPa	933.56
19250 kPa	933.7
19275 kPa	933.83
19300 kPa	933.97
19325 kPa	934.1
19350 kPa	934.24
19375 kPa	934.38
19400 kPa	934.51
19425 kPa	934.64
19450 kPa	934.79
19475 kPa	934.91
19500 kPa	935.12
19525 kPa	935.24
19550 kPa	935.36
19575 kPa	935.49
19600 kPa	935.62
19625 kPa	935.75
19650 kPa	935.88
19675 kPa	936
19700 kPa	936.18
19725 kPa	936.26
19750 kPa	936.44
19775 kPa	936.57
19800 kPa	936.69
19825 kPa	936.81
19850 kPa	936.93
19875 kPa	937.05
19900 kPa	937.17
19925 kPa	937.36
19950 kPa	937.48
19975 kPa	937.6
20000 kPa	937.71

Settings	speed of sound
10080 kPa, x1 = 0.7534	529.7 m/s
14970 kPa, x1 = 0.925	538.3 m/s
14980 kPa, x1 = 0.7534	600.9 m/s
14980 kPa, x1 = 0.925	537.1 m/s
14990 kPa, x1 = 0.925	536.5 m/s and 539.1 m/s
15060 kPa, x1 = 0.8502	554 m/s
19950 kPa, x1 = 0.925	600.2 m/s
19960 kPa, x1 = 0.925	602.2 m/s
20000 kPa, x1 = 0.8502	613.8 m/s
20000 kPa, x1 = 0.925	599.6 m/s and 601.7 m/s
20030 kPa, x1 = 0.7534	657.7 m/s
24940 kPa, x1 = 0.8502	663.5 m/s
24970 kPa, x1 = 0.925	651.7 m/s
24990 kPa, x1 = 0.925	651.3 m/s
25000 kPa, x1 = 0.925	652.9 m/s and 653 m/s
29950 kPa, x1 = 0.925	696.6 m/s
29980 kPa, x1 = 0.925	696.1 m/s
29990 kPa, x1 = 0.925	696.8 m/s
30000 kPa, x1 = 0.8502	707.4 m/s
30010 kPa, x1 = 0.925	695.5 m/s
30030 kPa, x1 = 0.7534	746.7 m/s
34980 kPa, x1 = 0.7534	783.5 m/s
34990 kPa, x1 = 0.925	735.2 m/s
35000 kPa, x1 = 0.925	736.1 m/s
35020 kPa, x1 = 0.925	734.8 m/s
35060 kPa, x1 = 0.8502	746.3 m/s
39980 kPa, x1 = 0.925	771.2 m/s
39990 kPa, x1 = 0.925	770.5 m/s and 770.1 m/s
40000 kPa, x1 = 0.925	771.3 m/s
40030 kPa, x1 = 0.8502	780.8 m/s

— the NIST ThermoML archive (doi:10.1016/j.jct.2016.03.026)
